# Reference: patent US20240327423A1, “A SERIES OF PYRROLE DERIVATIVES AND THEIR PREPARATION METHOD AND THERAPEUTIC USE” (SHENZHEN SUNGENING BIO-MEDICAL CO., LTD, priority 2020, published 2024)
# What was measured:
# [1] = tested on: Aspergillus fumigatus (ATCC MYA-4609/AF293/CBS 101355); assay: Measurement of minimum inhibitory concentration (MIC), AF293; type: cell-based; settings: CBS101355; Aspergillus fumigatus AF293, 35° C., 48 hours, RPMI1640; read-out: AF293: MIC
# Summary of the method: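 Broth microdilution in RPMI1640 buffered with 0.165M MOPS, pH 7.0, spore inoculum 0.2-2.5×10^4 spores/mL from SDA cultures. Twofold compound dilutions in DMSO, 1% of final volume. Incubated 35 °C for 48 h; growth scored visually with magnifier and OD530 read.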
# [2] = tested on: Aspergillus flavus (ATCC MYA-1004); assay: Measurement of minimum inhibitory concentration (MIC), ATCC MYA-1004; type: cell-based; settings: Aspergillus flavus ATCC MYA-1004, 35° C., 48 hours
# Description: New streaks are made with glycerol stock solution of the strains of Aspergillus fumigatus (ATCC MYA-4609/AF 293/CBS 101355) on Sabouraud's dextrose agar (SDA), incubate at 35° C. and a humidity of 40-70% for 72 hours. Other strains are processed as the same as AF293.
# RPMI1640: one packet of RPMI1640 powder is dissolved in 1 L purified water and mixed well, add 0.165M MOPS, adjust the pH to 7.0, sterilize by filtration with 0.22 um membrane, and store at 4° C. for no more than 3 months.
# Physiological saline: weigh 9 g of sodium chloride powder and dissolve in 1 L of purified water, and mixed well. Sterilize at 121° C. for 30 min, store at room temperature (RT) for no more than 1 week.
# Dissolve the test compound and stock solution of one control compound with DMSO and obtain solutions at a concentration of 12.8 mg/mL
# The maximum concentration of each compound is 0.8 mg/mL (e.g., 150 μL of dimethyl sulfoxide+10 uL of 12.8 mg/mL compound/control). Column 1 is filled with 40 μL of compound and columns 2 to 11 with 20 μL of dimethyl sulfoxide. Transfer 20 μL of compound from column 1 to column 2 to dilute the concentration. Repeat the above steps up to column 11 to give 2× serial dilutions.
# 2 μL of the above 2× serial dilutions are injected into each hole of the corresponding test plate using a multichannel pipette.
# Drop 5 ml of saline on the Aspergillus fumigatus SDA plate. The spores were carefully wiped off from the surface of the plate with an L-shaped coating rod. Then the suspension is transferred into a sterile tube. After shaking, let the tube stand for 5 to 10 minutes. Count the number of spores in the upper suspension with a hemocytometer and check the purity. Adjust the inoculum concentration to 0.2-2.5×10^4 spores/mL.
# Inject 198 μL of diluted inoculum into each holes of the corresponding test plate using a multichannel pipette.
# Incubate at 35° C. for 48 hours.
# To facilitate scoring of the presence or absence of growth on the wall, a magnifying glass is used. The tested 96-well microplates were photographed and the optical density at 530 nm is read with an enzyme marker (Tecan Spark).
# [3] = Liver microsomal stability test, mouse; type: in vitro ADME; settings: Mouse liver microsomes; for CLint scaled / half-life: 0.5 mg/mL protein, 37° C., NADPH
# [4] = tested on: Aspergillus fumigatus ATCCMYA-4690 (AF293); assay: Survival rate experiment I of mouse bloodstream infection model with Aspergillus fumigatus; type: in vivo; settings: immunosuppressed male CD-1 mouse; for survival time of mouses: 3 mg/kg orally twice daily; for day 7 survival rate: 3 mg/kg orally twice daily for 6 days, started 24 hours after infection
# Description: Test Case 5: Survival Rate Experiment I of Mouse Bloodstream Infection Model with Aspergillus fumigatus • Experimental animals: male CD-1 mouse, 6-8 weeks old, 10 animals per group. • Induction of immunosuppression: the day of infection is defined as day 0, and mouses are injected intraperitoneally with corresponding doses of cyclophosphamide on day −4 (150 mg/kg), day −1 (100 mg/kg) and day 2 (100 mg/kg). • Microbial pathogen: Aspergillus fumigatus ATCCMYA-4690 (AF293). • Collection conditions of inoculum: culture on SDA culture plates, incubate at 25° C. for at least 7 days, collect with PBS+0.1% Tween 20, and count microscopically; • Inoculation level, route and volume: 3.60E+05 CFU/mouse, tail vein injection, injection volume of 100 μL/mouse; • Treatment: Treatment is started 24 hours after infection, and test compounds are dissolved in PEG400 (0.3 mg/mL), and used for administration orally to mouses at 3 mg/kg, twice daily for 6 days. The administrated mouses are observed for 8 hours.
SMILES,MIC [1] [ng/mL],MIC [2] [ng/mL],CLint scaled [3] [mL/min/kg],half-life [3] [min],"Remaining, (T = 60 min) [3] [%]",survival time of mouses [4],day 7 survival rate [4] [%]
"Cc1cc(-c2ccccc2)c(C(=O)C(=O)Nc2ccc(N3CCN(c4ncc(F)cn4)CC3)cc2)n1C [Example F901318, reference compound]",30,4,98.9,25.2,18.7,prolong the survival time,0
Cc1cc(-c2ccccc2)c(C(=O)C(=O)Nc2cc(F)c3c(c2)OC[C@H]2CN(c4ncc(F)cn4)CCN32)n1C [Example 5],16,4,115,21.8,15.7,–,0
"Cc1cc(-c2ccccc2)c(C(=O)C(=O)Nc2ccc3c(c2)C[C@H]2CN(c4ncc(F)cn4)CCN32)n1C [Example 33, (S)-2-(1,5-dimethyl-3-phenyl-1H-pyrrol-2-yl)-N-(2-(5-fluoropyrimidin-2-yl)-1,2,3,4,10,10a-hexahydropyrazino[1,2-a]indol-8-yl)-2-oxoacetamide]",4,8,50.2,49.6,44.8,prolong the survival time,40
